Data from US11129823B2 (Aldeyra Therapeutics, Inc., priority 2016, dated 2021).

Tests used:
[1] = in vivo; settings: primates
Protocol: To allow for continuous exposure, NS2 0.5% will be administered at a dose of 4 times per day in Group 1 and Group 2. Aldehydes at concentrations of 10 μM are cytotoxic in cell culture (Maeda et al., 2012, Nat Chem Biol. 8(2):170-8). […] In primates, a single dose of 0.5% NS2 results in anterior eye tissue concentrations that range from 17.6 μM just after dosing to 1.2 μM three hours post dosing.

[2] = Phase 1 clinical study, 7 day QID topical dosing; format: in vivo, human
Protocol: (§1) The proposed proof of concept study will use the 0.5% dose level of NS2. This dose was selected based on the Phase 1 clinical study results under IND 104,497 and a 9-month dog study with QID (OU) dosing at 0.5%, 0.25%, and 0.1% (w/v). […] Based on the safety profile of the 9-month dog study where 0.5% NS2 was administered QID topically and the 7 day Phase 1 clinical study, a maximum treatment duration of 6-weeks was proposed.

[3] = system: TH1 and TH2 inflammatory cytokines, IL-10; settings: systemically administered; cited from earlier work
[4] = system: patients with active noninfectious anterior uveitis; test: Phase II randomized, investigator-masked, comparator-controlled trial of NS2 eye drops in anterior uveitis; format: in vivo, human
Source text: Group 2 patients will alternate doses of NS2 and Pred Forte®. All patients will be instructed to maintain at least one hour between any two doses. Patients will be followed for up to 8 weeks and monitored for safety and efficacy at six scheduled visits. Efficacy will be assessed by standard ophthalmic examination procedures and response to treatment will be graded according to established uveitis scales. […] Rescue therapy will consist of therapy dosed at the clinical discretion of the treating physician. Rescued patients will receive a follow-up assessment one week after rescue, and then they will be discontinued from the study. Study drug will be self-administered by the patient (or caregiver). Subjects will be instructed to administer study drug per the treatment arm they are assigned to. Subjects randomized to NS2 or Pred Forte® will begin with one drop in the study eye four (4) times per day. Subjects randomized to the NS2 and Pred Forte® group will be instructed to administer one drop of NS2 four (4) times per day alternating with Pred Forte® two (2) times per day. Pred Forte® will be tapered weekly and continued for up to five (5) weeks as described in Table 1. Based the pre-clinical activity of NS2 in diminishing TH1 cytokines as well as ocular inflammation in a pre-clinical model of uveitis, a Phase II trial of topical ocular NS2 was initiated in patients with active noninfectious anterior uveitis, a rare but serious autoimmune-like ocular disease that can lead to blindness. The design of the anterior uveitis Phase II trial was a randomized, parallel group, investigator-masked, comparator-controlled trial to evaluate the safety and efficacy of NS2 ophthalmic solution in patients with anterior uveitis. The trial assessed signs and symptoms of anterior uveitis including anterior chamber cell counts, which are utilized as the primary endpoints in registration studies of anterior uveitis. The study was conducted at 15 clinical sites in the US. […] Pred Forte® was dosed two (2) times daily and then tapered over a 4 week period. […] Prior to un-masking, one subject in the Pred Forte® group was removed from the ITT population for a history of ovarian cancer within the past 5 years, which met exclusion criteria. […] Patients were followed for 8 weeks and monitored for safety and efficacy at six scheduled visits. Efficacy was assessed by standard ophthalmic examination procedures including slit lamp examination and response to treatment was graded according to established uveitis scales. The visit schedule included a screening randomization visit, a day 4 telephone follow-up visit, and clinic visits at week 1, 2, 4, and 8. […] Rescued patients were followed through the week 8 end of study visit.

[5] = 9-month dog study with QID (OU) topical dosing; format: in vivo
Protocol: as §1

[6] = system: ocular inflammation; settings: cited from earlier work
[7] = system: patients with allergic conjunctivitis; test: Phase II clinical trial of topical ocular NS2 in allergic conjunctivitis; format: in vivo, human; settings: after a single eye drop
Source text: Based on the proposed role of aldehydes in mediating inflammation, in addition to the pre-clinical activity of NS2 in reducing IL-5 and other TH2 cytokines, a Phase II clinical trial of a single dose of topical ocular NS2 was initiated in patients with allergic conjunctivitis, and positive results were obtained from that trial in February 2016. The trial design and data from that trial have been reported previously. […] The positive clinical effects of NS2 continued […].

Q: With `CC(C)(O)c1nc2ccc(Cl)cc2cc1N` [NS2] as the compound, how does the “anterior eye tissue concentration” value [1] read?
A: The value was 17.6 µM.

Q: What about the concentration at 3 h [1] of the same compound?
A: The concentration at 3 h was 1200 nM.

Q: And the tolerability ([2]; 0.5% NS2 group, 7 day QID dosing)?
A: The tolerability was “well tolerated”.

Q: What about the concentration at 7 day ([2]; human, plasma, topical, 0.5% NS2, 7 day QID dosing, detection limit, each subject, read-out: plasma levels of NS2) of the same compound?
A: Its concentration at 7 day is < 5 ng/mL.

Q: And the “IL-10 (anti-inflammatory cytokine)” value [3]?
A: Its value is “up-regulating”.

Q: And the “levels of TH1 and TH2 inflammatory cytokines” value [3]?
A: Its value is “significantly lowered”.

Q: What about the “frequency of ocular stinging and burning” value ([4]; NS2 treated groups) of the same compound?
A: The value was “increased frequency”.

Q: And the “effects on anterior chamber cell counts” value ([4]; anterior uveitis population)?
A: Its value is “clinically meaningful effects”.

Q: And the tolerability ([4]; anterior uveitis population, 0.5% drops 4 times daily, 6 weeks)?
A: The tolerability was “generally well tolerated”.

Q: What about the “rescue medication required, proportion of patients” value ([4]; during the study) of the same compound?
A: Its value is 20%.

Q: What about the “safety concerns (ocular exam scores, intra-ocular pressure, corneal thickness, visual acuity)” value ([4]; during the study) of the same compound?
A: The value was “no safety concerns”.

Q: What about the “subjects withdrawn for an adverse event of stinging” value ([4]; in vivo) of the same compound?
A: Its value is “One”.

Q: What about the “ACC improvement of at least 1 grade, proportion of patients with successful response” value ([4]; time point not given) of the same compound?
A: Its value is 53%.

Q: And the “reducing inflammatory cell count in the anterior chamber of the eye versus standard of care corticosteroid” value ([4]; topical ocular)?
A: The value was “statistically indistinguishable from standard of care corticosteroid administration”.

Q: And the “grade 0 ACC (anterior chamber cell count) treatment response, proportion of patients” value ([4]; week 2 study visit, mITT population)?
A: The value was 33%.

Q: What about the “sustained grade 0 ACC treatment response, proportion of patients” value ([4]; week 8 study visit, mITT population) of the same compound?
A: The value was 40%.

Q: And the “macroscopic or microscopic evaluations” value ([5]; 9-month, QID (OU) at 0.5%, 0.25%, 0.1% (w/v))?
A: The value was “no abnormal findings”.

Q: And the tolerability ([5]; dog, in vivo)?
A: Its tolerability is “well tolerated”.

Q: And the “activity versus topical ocular corticosteroid administration” value [6]?
A: The value was “compared favorably”.

Q: And the “ocular itching and tearing” value [7]?
A: Its value is “significantly reduced”.
